What was measured:
5‐HT2C receptor = target: T1, 5‐HT2C receptor (Rattus norvegicus, UniProt P08909); assay: 5‐HT2C receptor binding assay ([3H]‐LSD competition); conditions: mean ± SEM, three independent experiments
T1 construct: 5‐HT2C receptor membrane protein was extracted from rat hippocampus and a stably transfected HEK293 cell line; from tissue; host or cells: rat hippocampus
T1 sequence (P08909 33-460): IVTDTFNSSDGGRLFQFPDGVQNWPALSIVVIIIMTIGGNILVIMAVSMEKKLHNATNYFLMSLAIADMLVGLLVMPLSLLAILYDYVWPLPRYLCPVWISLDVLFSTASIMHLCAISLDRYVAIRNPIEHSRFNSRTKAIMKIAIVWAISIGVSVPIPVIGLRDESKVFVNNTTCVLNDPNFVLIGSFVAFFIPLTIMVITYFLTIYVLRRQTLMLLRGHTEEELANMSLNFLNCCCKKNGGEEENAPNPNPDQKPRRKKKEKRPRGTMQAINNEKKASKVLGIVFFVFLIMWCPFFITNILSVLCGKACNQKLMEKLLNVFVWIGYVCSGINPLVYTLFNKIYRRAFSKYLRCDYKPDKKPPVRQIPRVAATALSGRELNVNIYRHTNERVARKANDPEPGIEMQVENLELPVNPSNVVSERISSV
Experimental: Hippocampal membrane preparations were obtained using previously described methods. ^24 , ^25 , ^26 Briefly, rats were decapitated and their brains were rapidly removed. Next, the hippocampus was dissected and subsequently homogenized in 40 volumes of ice‐cold buffer (50 mM Tris‐HCl Buffer, pH 7.4) and then centrifuged at 40,000 × g at 4°C for 10 min. The particles were re‐suspended and centrifuged again. In order to remove endogenous monoamines, the final suspension was incubated at 37°C for 20 min and then centrifuged as usual. The final pellets were frozen at −80°C at once for up to 1 week.
Human MT1/MT2 receptor membrane proteins were obtained from Perkin‐Elmer (ES‐620 [MT1] and ES‐621 [MT2]). The stably transfected 5‐HT2C receptor HEK293 cell line was prepared using a nucleus‐cytoplasm‐membrane preparation kit (Applagin Technologies Inc.). Briefly, cells were harvested at 4°C, 110 00 × g and centrifugation for 5 min. Homogenize pellets in the assay buffer (50 mM Tris‐HCl buffer containing 120 mM NaCl and 5 mM KCl, pH 7.4) and then centrifuged twice at 4°C, 36,000 × g for 15 min. […]
Receptor membrane protein, 5‐HT2C (50 μl), was added to all the tubes. Non‐specific binding was determined by the presence of unlabeled 10 μM 5‐HT and pre‐reacted for 30 min. […] Finally, 1 ml of scintillation fluid was added and the radioactive intensity measured by liquid scintillation counting.

MT1 receptor = target: T2, MT1 receptor (Homo sapiens, UniProt P48039); assay: [35S]‐GTPγS binding assay, MT1; format: biochemical; conditions: [35S]‐GTPγS binding; read-out: maximal increase over basal binding (% Emax), MT1 receptor
T2 construct: purchased Perkin‐Elmer ES‐620
T2 sequence (P48039 whole entry): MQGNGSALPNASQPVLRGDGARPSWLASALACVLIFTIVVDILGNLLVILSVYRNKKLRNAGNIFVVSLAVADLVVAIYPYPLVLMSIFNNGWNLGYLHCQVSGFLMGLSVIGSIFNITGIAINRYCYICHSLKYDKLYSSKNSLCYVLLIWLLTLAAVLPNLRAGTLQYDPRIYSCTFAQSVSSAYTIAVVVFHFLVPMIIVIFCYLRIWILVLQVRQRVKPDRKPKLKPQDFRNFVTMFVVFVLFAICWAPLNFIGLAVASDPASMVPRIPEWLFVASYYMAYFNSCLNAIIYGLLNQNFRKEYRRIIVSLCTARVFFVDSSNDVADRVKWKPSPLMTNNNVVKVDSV
Experimental: (§1) This experiment was mentioned earlier. ^27 In short, HEK293 cell membrane stably expressing human 5‐HT2C receptors or rat hippocampal tissue membrane or MT1/MT2 receptors was re‐suspended in buffer (50 mmol/L Tris, 100 mmol/L NaCl, 5 mmol/L MgCl2·6H2O, 0.1 mmol/L EDTA‐Na2·6H2O, 0.2 mmol/L EGTA, pH 7.4) and incubated with the test compound (100 μM GDP, 0.2 nM [^35S]‐GTP, or [^3H]PIP) for 60 min at 28℃. At the end of the experiment, Whatman GF/C filters pre‐soaked with distilled water were used for rapid filtration followed by washing with 5 ml of ice‐cold Tris buffer. Determination of non‐specific binding in the presence of GTPγS and radioactivity was measured by liquid scintillation counting. Calculation of the concentration produces a half‐maximal effect (EC50) and the maximal increase above the baseline value.

MT2 receptor = target: T3, MT2 receptor (Homo sapiens, UniProt P49286); assay: [35S]‐GTPγS binding assay, MT2; format: biochemical; conditions: [35S]‐GTPγS binding; read-out: maximal increase over basal binding (% Emax), MT2 receptor
T3 construct: purchased Perkin‐Elmer ES‐621
T3 sequence (P49286 1-362): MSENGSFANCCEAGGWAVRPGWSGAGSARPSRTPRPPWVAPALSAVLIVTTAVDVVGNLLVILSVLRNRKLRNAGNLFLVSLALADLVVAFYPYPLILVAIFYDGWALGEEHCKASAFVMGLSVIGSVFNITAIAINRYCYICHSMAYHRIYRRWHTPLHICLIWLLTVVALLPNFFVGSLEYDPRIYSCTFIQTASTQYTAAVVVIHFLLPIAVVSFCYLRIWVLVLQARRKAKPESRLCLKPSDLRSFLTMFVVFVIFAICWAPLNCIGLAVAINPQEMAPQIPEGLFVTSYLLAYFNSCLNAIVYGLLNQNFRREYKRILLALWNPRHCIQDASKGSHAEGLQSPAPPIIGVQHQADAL
Experimental: as §1

mice [1] = assay: Tail suspension test in mice; format: in vivo, ICR mice; conditions: oral, 10, 20 or 40 mg/kg, vs. vehicle
Experimental: The tail suspension test (TST) was conducted as described earlier. ^28 , ^29 Eighty naive mice were randomly divided into eight treatment groups (n = 10/group). All mice received a single dose of the drug (p.o.). After 60 min of gavage administration, mice were suspended from the top of the apparatus (25 × 25 × 35 cm) using tape about 1 cm from the tail tip. The duration of immobility was recorded in the last 4 min for a total of 6 min. When mice are passively suspended immobile, they are judged to be stationary.

rats = assay: Forced swimming test in rats; format: in vivo, Sprague Dawley (SD) rats; conditions: oral, 40 mg/kg
Experimental: The forced swimming test (FST) was conducted as described earlier. ^30 Eighty naive rats were randomized into eight treatment groups (n = 9‐12/group). All rats received a single drug administration (p.o.). The procedure consisted of two sessions, to be specific, a pre‐test session and a test session. A cylindrical container (diameter, 20 cm; height, 40 cm; including 30 cm of water and kept at 25℃) was used. During the pre‐test phase, rats were required to perform forced swimming for 15 min. The test session was performed 24 h later, put the rats in the same cylindrical container for 5 min and immobility duration over 5 min recorded. […] Rats were considered immobile when they entered a floating posture, specifically, immobile, passive, and with their heads above water.

CUS rats = assay: Novelty‐suppressed feeding test in the CUS model; format: in vivo; conditions: chronic, 10 mg/kg
Experimental: In order to further examine the antidepressant effects of GW117, chronic unpredictable stress (CUS) model was utilized; the methods were as described before. ^29 , ^31 After 1 week of training, rats underwent sucrose training of 48 h. After training, a sucrose baseline test was performed. […] Gastric gavage was given 1 h before the stress (08:00–09:00). Except for the non‐stressed group, all rats were stimulated by a series of stressors. stress methods included the following: fast on food and water (24 h), moisture cage (150 g sawdust bedding in 200 ml water), overnight illumination, low‐intensity strobe illumination (100 flashes/min), forced swimming (5 min at 10℃), white noise (110 dB), tail pinch (1 cm from tail root, 6 min), 45℃ cage tilt, and restraint (1–2 h). Stressors need to be used continuously and randomly. Non‐stressed rats received free food and water, but were required to fast for 14 h before sucrose preference test. After 4 weeks of stress, the sucrose preference test (SPT) (on day 25), open field test (OFT) (on day 28), and novelty‐suppressed feeding (NSF) test (on day 29) were carried out. […]

mice [2] = assay: Learned helplessness paradigm in mice; format: in vivo, ICR mice; conditions: sub‐chronic (4 days), 10 mg/kg ig., after inescapable shock training
Experimental: For 4 consecutive days, mice were putted into the shuttle box device (40 × 10 × 13 cm), the device was splited into two compartments, and mice could free access. In the IS group, each mouse received 360 inescapable shocks (current intensity 0.30 mA, duration 2 s, 3‐13 s variable interval, about 1 h) over four consecutive training days. Animals in the NIS group underwent the same handling without receiving the foot shocks. 10 trials were conducted on mice to screen helpless, each of which includes conditioned stimulation period (3‐s lamp on), non‐conditioned stimulation period (3‐s lamp +shock), and interval period (without any stimulus, 25 s). […] The EF values were balanced for each group in the experiment. Using Graphic State software (Coulbourn Instruments Inc.,) recorded the number of escape failures and the latency to escape.

[3] = parameters: method as in PMID 31657152; conditions: single dose; cited from earlier work

With COc1ccc2cccc(CCNC(C)=O)c2c1 [Agomelatine, reference compound] the Ki (5‐HT2C receptor) was 0.64 ± 0.25 nM, the Emax (MT1 receptor) was 94 ± 7.34% and the Emax (MT2 receptor) was 101 ± 4.56%. For the same compound, the “immobility time in TST” value (mice [1]) was “had no effect on immobility time”, the “immobility time in FST” value (rats) was “significantly decreased the immobility time” and the “feeding latency in NSF test” value (CUS rats) was “not effective”.

With CNCCC(Oc1ccc(C(F)(F)F)cc1)c1ccccc1 (stereo not drawn) [Fluoxetine, reference compound] the “deficit of avoidance behavior (escape latency and number of escape failures)” value (mice [2]) was “significantly reversed the deficit of avoidance behavior”.

For CNC1(c2ccccc2Cl)CCCCC1=O (stereo not drawn) [ketamine], the “duration of rapid antidepressant response” value [3] is given as “at least three” and the “mean onset time of rapid antidepressant response” value [3] is given as “four”.
